According to EP0077430B1, “A pharmaceutical composition for enhancing keratinogenesis and reducing facial and scalp seborrhea” (Mavi S.r.l., priority 1981, dated 1983):

How the values were obtained:
Type in all cases: in vivo, Whistar rats
[1] = test system: rats kept on a biotin poor diet; assay: Experimental test 1: skin total lipids and hair sulphur content of rats on a biotin free diet with additives
From the text: According to the invention in fact the intimate distribution of the cystine within the mass of "soft" gelatin ensures a particularly favorable oral absorption, so that it is possible to reduce the doses of active substances with respect to the doses established by the prior art for the indicated pharmaceutical use. […] It is in fact known that the alimentary insufficiency of biotin induces, in the rat, the formation of a seborrhoic clinical condition, characterized by the increase of the sebaceous secretion and by the fall of hair.
In order to have a direct comparison, said rats have been successively treated, in different lots, -with diets to which was added respectively gelatin, cystine, gelatin-cystine in mechanical mixture and gelatin-cystine in soft spherules.
60 Whistar rats were employed of both sexes (30 males and 30 females) of the average weight of 150 g±9. Following the Kalopissis et al methodology (U.S. patent No. 3629452) 50 rats were kept on a biotin free diet for about 40 days until an evident seborrhoic clinical condition had developed, while the remaining 10 served as controls. After obtaining the desired clinical condition with the development of seborrhoea and loss of hair in various zones, the 50 rats were subdivided into five groups of 10 rats each and treated as follows: • 1st group: biotin free diet added with cystine; • 2nd group: biotin free diet added with gelatin; • 3rd group: biotin free diet added with cystine and gelatin in mechanical mixture; • 4th group: biotin free diet added with the mixture of gelatin/cystine melted in soft spherules; • 5th group: biotin free diet; • 6th group: control.
The diets were administered weekly in the cages of the rats in accurately weighed quantity so that the rats, kept in single cages, would ingest together with the feed, respectively: • 1st group: 84 mg per kg a week of cystine; • 2nd group: 203 mg per kg a week of gelatin from collagen; • 3rd group: 84 mg per kg a week of cystine and 203 mg per kg a week of gelatin; • 4th group: 280 mg per kg a week of the melted mixture of gelatin/cystine comprising 79.8 mg of cystine and 200.2 mg of gelatin.
After three weeks of treatment and after taking about 200 mg of hairs per rat, all the animals, included the controls, were sacrificed in a chloroform saturated environment in order to control their skin total lipids and in order to carry out possible histological and bioptic examinations. […]
The content of the total lipids was determined gravimetrically by the difference in weight of the sample before and after the extraction in a Soxhlet with acetone for 10 days and further drying out in vacuum over P205 and paraffin for 24 hours.

[2] = test system: biotin poor rats; assay: Experimental test 2, lot I: composition of hair keratin (sulphur, cystine, proteins) of biotin poor rats
From the text: (§1) The elective stimulating action has also been verified on rats, performed especially by the gelatin cystine, in the keratinization processes of the hairy structures, verifying the average content of sulphur and cystine of the hair of rats kept on a normal diet and respectively of rats kept on a biotin poor diet, fed respectively only gelatin, only cystine and the association of gelatin-cystine both in the form of mechanical mixture in hard capsules, and in the form melted in soft spherules.
(§2) 110 Whistar rats of both sexes were employed (55 males plus 55 females) of the average weight of 150 g±9, divided in two lots of respectively 60 (lot I) and 50 (lot II) rats each. Following the Kalopissis and Manoussos methodology already quoted in test 1, 50 rats of lot I were kept on a biotin poor diet for about 40 days until the appearance of an evident seborrhoic clinical condition was induced, while the remaining 10 served as controls. After having obtained the desired clinical condition with the appearance of seborrhoea and loss of hair in several zones, the 60 rats were divided into six groups of 10 rats each and treated as follows:
The diets prepared specifically by a specialized firm were administered weekly in the cages of the rats, in accurately weighed quantity so that the rats, kept in single cages, would ingest together with the feed, respectively:
After six weeks of treatment and after having taken about 1 gof hair per rat, all the animals included the controls were sacrificed in a chloroform saturated atmosphere.
(§3) A part of the hair (about 100 mg) of all the animals of the two groups, thoroughly washed with alcohol and ethyl ether and dried, are used for the determination of the total sulphur carried out by means of titration, according to the previously mentioned McDonald methodology.
(§4) After having hydrolyzed the hair of all the animals (about 800 mg) previously washed as already described, the quantity of cystine was determined using an autoanalyzer.
(§5) The extraction of the total keratins of the hairs was carried out using the urea-thioglycolate method as described in Gillespie J. M., Reis P. J. and Schinckel P. G. (1964) Aust. J. Biol. Sci. 17, 548.
(§6) After determining from one portion the total keratin (total proteins), the keratin fraction of high sulphur content is separated through alkylation with iodo acetate, dialysis and precipitation of the protein of low sulphur content with zinc acetate at pH 6. The total sulphur was determined on the protein fraction "rich in sulphur" according to the already mentioned McDonald methodology.

[3] = test system: normal rats, not subjected previously to a biotin poor diet; assay: Experimental test 2, lot II: composition of hair keratin of normal rats fed an enriched diet; details: 150 days of treatment
From the text: as §1, §2
The 50 rats of the second lot (normal rats, not subjected previously to a biotin poor diet), divided into five groups of 10 rats each, have been fed respectively:
The quantity of the feed placed in the cages was calculated in such a way that the rats would ingest the same quantity per kg of cystin, FU gelatin or gelatin-cystine already described above.
After 150 days of treatment the rats, under ether anaesthesia, were partially depilated with a razor.
as §3, §4, §5, §6

[4] = in the biotin-poor rats, oral, P<0.05
[5] = hair of biotin poor rats, six weeks of treatment

SMILES: N[C@@H](CSSC[C@H](N)C(=O)O)C(=O)O [Levo-cystine]
- Total lipides % ([1]; dorsal skin, gravimetric after acetone extraction, biotin poor diet plus additive, three weeks of treatment, °=P<0.05 versus group VI (controls)): 38.1±2.987° %
- increase of the total sulphur of the hair [1, 4]: about 7%
- reduction of the total lipids of the skin [1, 4]: about 15%
- Sulphur content (×g hair, %) ([1]; total sulphur by titration, percentage of dried weight of hair, biotin poor diet plus additive, three weeks of treatment): 2.48±0.066° %
- "Sulphur rich" proteic fraction % [2, 5]: 20±1%
- Sulphur contained in the "sulphur rich" proteic fraction, % [2, 5]: 3.9±0.05%
- Sulphur content % [2, 5]: 2.48±0.07° %
- Cystine content % ([2]; hair of biotin poor rats, six weeks of treatment, g/100 g of hairs, autoanalyzer after hydrolysis): 9.3±0.6%
- Total proteins % ([2]; total keratins of hair, urea-thioglycolate extraction, biotin poor rats, six weeks): 90±1%
- "Sulphur rich" keratin % [3]: 25.9±0.5° %
- Cystine content % [3]: 13.8±0.6° %
- Sulphur contained in the "sulphur rich keratin" % [3]: 5.1±0.2° %
- Sulphur content % [3]: 3.6±0.1° %
